# Results as given in ChEMBL document CHEMBL3763146 (J Med Chem, 2016).
# Columns and labels:
# [1] = Oral bioavailability in rhesus monkey at 2 mg/kg; format: ADME, organism-based, Macaca mulatta; conditions: in vivo
# [2] = target: Beta-3 adrenergic receptor (Canis lupus familiaris, UniProt O02662); test: Agonist activity at dog beta3 adrenergic receptor expressed in CHO cells assessed as accumulation of cAMP after 30 mins by TR-FRET assay; format: functional, cell-based
# [3] = target: Sodium-dependent serotonin transporter (Homo sapiens, UniProt P31645); test: Inhibition of human SERT expressed in HEK293 cells preincubated for 30 mins followed by fluorescent substrate addition measured after 30 mins by plate reader analysis; format: cell-based
# Sodium-dependent serotonin transporter, sequence (P31645 whole entry): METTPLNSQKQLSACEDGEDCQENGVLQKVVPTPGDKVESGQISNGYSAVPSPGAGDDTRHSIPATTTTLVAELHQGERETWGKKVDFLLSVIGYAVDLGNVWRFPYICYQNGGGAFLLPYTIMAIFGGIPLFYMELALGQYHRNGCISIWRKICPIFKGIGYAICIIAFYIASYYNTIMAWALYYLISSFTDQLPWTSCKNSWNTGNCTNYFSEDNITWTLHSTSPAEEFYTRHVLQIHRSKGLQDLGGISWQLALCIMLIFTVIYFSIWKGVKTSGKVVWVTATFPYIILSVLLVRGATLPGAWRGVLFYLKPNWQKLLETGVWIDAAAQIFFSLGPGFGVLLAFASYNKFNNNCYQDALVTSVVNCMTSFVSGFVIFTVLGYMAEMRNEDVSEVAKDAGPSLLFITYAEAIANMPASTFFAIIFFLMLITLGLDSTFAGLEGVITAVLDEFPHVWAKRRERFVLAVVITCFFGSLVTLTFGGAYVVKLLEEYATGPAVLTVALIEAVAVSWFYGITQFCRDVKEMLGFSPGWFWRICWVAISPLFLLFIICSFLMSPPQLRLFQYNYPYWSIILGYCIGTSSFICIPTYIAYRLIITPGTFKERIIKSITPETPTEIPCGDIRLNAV
# Rattus norvegicus [4] = test: Unbound clearance in rat at 1 mg/kg, iv or 2 mg/kg, po; format: ADME, organism-based; conditions: in vivo
# [5] = target: T1, Beta-3 adrenergic receptor (Homo sapiens, UniProt P13945); test: Agonist activity at human adrenergic beta3 receptor expressed in CHO cells assessed as accumulation of cAMP after 30 mins by TR-FRET assay in presence of 40% serum relative to (R)-(-)-isoproterenol; format: functional, cell-based
# T1 sequence (P13945 whole entry, looked up): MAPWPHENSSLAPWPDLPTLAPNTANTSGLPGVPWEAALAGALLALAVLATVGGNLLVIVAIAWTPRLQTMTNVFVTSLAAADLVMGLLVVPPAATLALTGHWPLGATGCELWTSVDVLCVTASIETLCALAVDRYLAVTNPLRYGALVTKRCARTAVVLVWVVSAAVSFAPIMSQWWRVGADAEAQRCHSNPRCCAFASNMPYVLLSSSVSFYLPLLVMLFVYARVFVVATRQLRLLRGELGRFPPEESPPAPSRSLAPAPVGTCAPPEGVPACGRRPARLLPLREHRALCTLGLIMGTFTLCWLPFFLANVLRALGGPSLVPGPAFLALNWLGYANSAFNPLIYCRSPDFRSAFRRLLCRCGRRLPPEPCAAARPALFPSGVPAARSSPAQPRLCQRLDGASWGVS
# [6] = target: Beta-3 adrenergic receptor (Macaca mulatta) (UniProt Q28524); test: Agonist activity at rhesus monkey beta3 adrenergic receptor expressed in CHO cells assessed as accumulation of cAMP after 30 mins by TR-FRET assay in presence of 40% serum relative to (R)-(-)-isoproterenol; format: functional, cell-based
# Beta-3 adrenergic receptor (Macaca mulatta), sequence (Q28524 whole entry): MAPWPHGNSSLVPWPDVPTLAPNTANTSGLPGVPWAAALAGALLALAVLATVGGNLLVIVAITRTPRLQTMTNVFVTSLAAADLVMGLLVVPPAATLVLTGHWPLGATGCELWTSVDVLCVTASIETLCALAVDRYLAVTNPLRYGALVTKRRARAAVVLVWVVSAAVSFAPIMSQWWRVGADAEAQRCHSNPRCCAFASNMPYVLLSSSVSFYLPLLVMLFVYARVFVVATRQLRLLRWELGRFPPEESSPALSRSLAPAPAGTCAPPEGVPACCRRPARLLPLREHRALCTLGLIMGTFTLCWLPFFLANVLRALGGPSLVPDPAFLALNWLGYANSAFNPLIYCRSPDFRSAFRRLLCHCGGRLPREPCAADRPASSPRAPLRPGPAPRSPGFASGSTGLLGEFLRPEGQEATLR
# Canis familiaris [7] = test: Unbound clearance in dog at 0.5 mg/kg, iv or 2 mg/kg, po; format: ADME, organism-based, Canis lupus familiaris; conditions: in vivo
# Cytochrome P450 2C9 = Cytochrome P450 2C9 (Homo sapiens, UniProt P11712); test: Inhibition of CYP2C9 in human liver microsomes assessed as diclofenac alpha'-hydroxylation; format: ADME
# Cytochrome P450 2C9, sequence (P11712 whole entry): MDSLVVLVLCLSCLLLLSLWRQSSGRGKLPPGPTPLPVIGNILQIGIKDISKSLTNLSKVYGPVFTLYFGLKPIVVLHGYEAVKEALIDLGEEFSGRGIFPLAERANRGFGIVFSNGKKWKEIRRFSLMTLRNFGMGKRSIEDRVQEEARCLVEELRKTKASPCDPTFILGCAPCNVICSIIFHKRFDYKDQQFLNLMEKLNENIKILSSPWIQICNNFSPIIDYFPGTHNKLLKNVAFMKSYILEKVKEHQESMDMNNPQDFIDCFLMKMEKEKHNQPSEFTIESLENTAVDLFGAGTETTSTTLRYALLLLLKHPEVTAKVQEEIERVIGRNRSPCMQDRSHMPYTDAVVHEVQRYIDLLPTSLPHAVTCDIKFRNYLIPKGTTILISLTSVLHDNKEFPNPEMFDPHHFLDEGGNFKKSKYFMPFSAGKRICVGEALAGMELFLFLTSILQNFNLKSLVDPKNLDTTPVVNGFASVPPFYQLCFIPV
# [8] = Induction of phospholidosis in human HepG2 cells incubated overnight by […] in presence of fluorescent labeled phospholipid probe NBD-PE; format: cell-based; conditions: read-out: A50
# [9] = Fraction unbound in dog at 0.5 mg/kg, iv or 2 mg/kg, po; format: ADME, organism-based, Canis lupus familiaris; conditions: in vivo
# Rattus norvegicus [10] = test: Dose normalized total AUC in rat at 2 mg/kg, po; format: ADME, organism-based; conditions: in vivo
# [11] = target: Beta-3 adrenergic receptor (Rattus norvegicus, UniProt P26255); test: Agonist activity at rat beta3 adrenergic receptor expressed in CHO cells assessed as accumulation of cAMP after 30 mins by TR-FRET assay; format: functional, cell-based
# Beta-3 adrenergic receptor (Rattus norvegicus, UniProt P26255), sequence (P26255 whole entry): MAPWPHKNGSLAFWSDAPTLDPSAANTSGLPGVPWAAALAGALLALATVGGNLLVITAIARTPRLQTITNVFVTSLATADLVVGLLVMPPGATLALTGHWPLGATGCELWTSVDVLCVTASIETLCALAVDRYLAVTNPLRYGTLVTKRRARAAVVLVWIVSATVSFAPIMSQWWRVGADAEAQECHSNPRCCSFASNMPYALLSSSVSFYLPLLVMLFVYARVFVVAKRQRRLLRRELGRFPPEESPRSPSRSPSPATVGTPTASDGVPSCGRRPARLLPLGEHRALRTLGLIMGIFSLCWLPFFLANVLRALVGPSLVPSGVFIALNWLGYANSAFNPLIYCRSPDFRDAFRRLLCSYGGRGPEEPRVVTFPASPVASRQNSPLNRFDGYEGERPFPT
# Rhesus monkey [12] = test: Dose normalized total AUC in rhesus monkey at 2 mg/kg, po; format: ADME, organism-based, Macaca mulatta; conditions: in vivo
# [13] = Fraction unbound in rat at 1 mg/kg, iv or 2 mg/kg, po; format: ADME, organism-based; conditions: in vivo
# Cytochrome P450 2D6 = Cytochrome P450 2D6 (Homo sapiens, UniProt P10635); test: Inhibition of CYP2D6 in human liver microsomes assessed as dextraomethorphan O-demethylation; format: ADME
# Cytochrome P450 2D6, sequence (P10635 whole entry): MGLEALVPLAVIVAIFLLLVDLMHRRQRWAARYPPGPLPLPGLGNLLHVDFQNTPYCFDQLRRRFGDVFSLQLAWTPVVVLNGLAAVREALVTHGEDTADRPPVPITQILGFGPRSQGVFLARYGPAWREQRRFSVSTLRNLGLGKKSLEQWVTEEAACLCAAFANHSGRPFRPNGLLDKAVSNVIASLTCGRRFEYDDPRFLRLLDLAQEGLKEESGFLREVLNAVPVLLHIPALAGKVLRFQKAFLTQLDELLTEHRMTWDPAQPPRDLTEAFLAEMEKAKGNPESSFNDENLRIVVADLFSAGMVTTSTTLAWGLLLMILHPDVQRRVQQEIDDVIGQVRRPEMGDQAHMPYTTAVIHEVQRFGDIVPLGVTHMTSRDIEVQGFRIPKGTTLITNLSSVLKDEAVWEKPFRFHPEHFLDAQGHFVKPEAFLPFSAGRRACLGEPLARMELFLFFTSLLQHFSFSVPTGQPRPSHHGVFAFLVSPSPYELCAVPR
# Rhesus monkey [14] = test: Unbound clearance in rhesus monkey at 0.5 mg/kg, iv or 2 mg/kg, po; format: ADME, organism-based, Macaca mulatta; conditions: in vivo
# [15] = target: T2, Beta-3 adrenergic receptor (Macaca mulatta, UniProt Q28524); test: Agonist activity at rhesus monkey beta3 adrenergic receptor expressed in CHO cells assessed as accumulation of cAMP after 30 mins by TR-FRET assay; format: functional, cell-based
# T2 sequence (Q28524 whole entry): as the sequence (Q28524 whole entry) above
# Canis familiaris [16] = test: Dose normalized total AUC in dog at 2 mg/kg, po; format: ADME, organism-based, Canis lupus familiaris; conditions: in vivo
# [17] = target: Beta-3 adrenergic receptor (Macaca mulatta) (UniProt Q28524); test: Agonist activity at rhesus monkey beta3 adrenergic receptor expressed in CHO cells assessed as accumulation of cAMP after 30 mins by TR-FRET assay relative to (R)-(-)-isoproterenol; format: functional, cell-based
# [18] = target: T2, Beta-3 adrenergic receptor; test: Agonist activity at rhesus monkey beta3 adrenergic receptor expressed in CHO cells assessed as accumulation of cAMP after 30 mins by TR-FRET assay in presence of 40% serum; format: functional, cell-based
# [19] = target: Voltage-gated inwardly rectifying potassium channel KCNH2 (Homo sapiens, UniProt Q12809); test: Binding affinity to human ERG channel
# Voltage-gated inwardly rectifying potassium channel KCNH2, sequence (Q12809 whole entry): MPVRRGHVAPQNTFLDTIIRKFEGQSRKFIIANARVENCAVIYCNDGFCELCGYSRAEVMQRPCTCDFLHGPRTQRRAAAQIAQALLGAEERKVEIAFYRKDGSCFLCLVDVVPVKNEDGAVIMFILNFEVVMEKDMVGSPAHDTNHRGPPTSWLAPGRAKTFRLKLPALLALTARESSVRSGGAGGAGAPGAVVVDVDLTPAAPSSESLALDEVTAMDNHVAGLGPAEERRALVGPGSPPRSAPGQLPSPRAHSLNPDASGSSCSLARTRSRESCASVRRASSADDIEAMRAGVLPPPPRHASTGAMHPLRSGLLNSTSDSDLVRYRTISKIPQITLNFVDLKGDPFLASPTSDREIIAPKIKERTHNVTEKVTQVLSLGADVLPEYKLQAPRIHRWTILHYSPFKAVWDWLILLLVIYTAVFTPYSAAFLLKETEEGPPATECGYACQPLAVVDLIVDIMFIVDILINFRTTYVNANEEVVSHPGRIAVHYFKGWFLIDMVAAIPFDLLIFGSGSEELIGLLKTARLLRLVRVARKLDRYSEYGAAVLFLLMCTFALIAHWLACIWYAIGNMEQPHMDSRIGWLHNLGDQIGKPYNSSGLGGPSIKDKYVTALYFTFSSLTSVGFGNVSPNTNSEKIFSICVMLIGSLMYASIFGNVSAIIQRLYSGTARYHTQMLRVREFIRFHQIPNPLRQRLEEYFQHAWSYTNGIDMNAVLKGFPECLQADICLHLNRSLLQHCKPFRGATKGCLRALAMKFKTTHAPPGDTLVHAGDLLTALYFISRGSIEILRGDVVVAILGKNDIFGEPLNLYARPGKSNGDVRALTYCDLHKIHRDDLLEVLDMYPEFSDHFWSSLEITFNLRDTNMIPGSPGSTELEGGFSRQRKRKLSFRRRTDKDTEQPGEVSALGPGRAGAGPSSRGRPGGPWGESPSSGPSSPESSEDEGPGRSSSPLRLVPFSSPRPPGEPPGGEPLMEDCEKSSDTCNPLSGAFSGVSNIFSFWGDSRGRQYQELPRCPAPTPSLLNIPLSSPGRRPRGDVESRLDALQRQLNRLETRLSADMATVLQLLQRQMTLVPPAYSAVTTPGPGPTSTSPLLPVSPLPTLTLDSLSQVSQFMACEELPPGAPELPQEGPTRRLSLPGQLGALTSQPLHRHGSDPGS
# [20] = Oral bioavailability in dog at 2 mg/kg; format: ADME, organism-based, Canis lupus familiaris; conditions: in vivo
# Cytochrome P450 3A4 = Cytochrome P450 3A4 (Homo sapiens, UniProt P08684); test: Inhibition of CYP3A4 in human liver microsomes assessed as testosterone 6beta-hydroxylation; format: ADME
# Cytochrome P450 3A4, sequence (P08684 whole entry): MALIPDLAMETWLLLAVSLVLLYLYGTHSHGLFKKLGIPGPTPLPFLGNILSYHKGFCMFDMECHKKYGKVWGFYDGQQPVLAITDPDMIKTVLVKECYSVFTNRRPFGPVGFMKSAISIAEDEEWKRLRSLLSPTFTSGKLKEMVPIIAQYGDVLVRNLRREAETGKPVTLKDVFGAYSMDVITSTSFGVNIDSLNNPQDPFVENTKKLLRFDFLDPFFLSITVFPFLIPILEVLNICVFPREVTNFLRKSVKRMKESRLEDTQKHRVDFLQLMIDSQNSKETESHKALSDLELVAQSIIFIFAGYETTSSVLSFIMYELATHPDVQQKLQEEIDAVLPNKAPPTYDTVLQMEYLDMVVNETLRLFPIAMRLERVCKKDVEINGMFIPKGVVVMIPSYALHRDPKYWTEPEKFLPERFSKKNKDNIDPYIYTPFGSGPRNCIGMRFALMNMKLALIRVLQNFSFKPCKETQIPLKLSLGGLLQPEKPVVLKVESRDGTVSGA
# [21] = Distribution coefficient, logD of the compound at pH 7.4; format: physicochemical; conditions: octanol/water
# [22] = Oral bioavailability in rat at 2 mg/kg; format: ADME, organism-based; conditions: in vivo
# [23] = target: T1, Beta-3 adrenergic receptor; test: Agonist activity at human beta3 adrenergic receptor expressed in CHO cells assessed as accumulation of cAMP after 30 mins by TR-FRET assay relative to (R)-(-)-isoproterenol; format: functional, cell-based
# [24] = target: Voltage-dependent L-type calcium channel subunit alpha-1C (Homo sapiens, UniProt Q13936); test: Displacement of [3H]-diltiazem from human Cav1.2 channel
# [25] = Fraction unbound in rhesus monkey at 0.5 mg/kg, iv or 2 mg/kg, po; format: ADME, organism-based, Macaca mulatta; conditions: in vivo
# [26] = target: Beta-3 adrenergic receptor (Rattus norvegicus) (UniProt P26255); test: Agonist activity at rat beta3 adrenergic receptor expressed in CHO cells assessed as accumulation of cAMP after 30 mins by TR-FRET assay relative to (R)-(-)-isoproterenol; format: functional, cell-based
# Beta-3 adrenergic receptor (Rattus norvegicus), sequence (P26255 whole entry): as the sequence (P26255 whole entry) above
# [27] = Solubility of the compound in buffer at pH >= […]; format: physicochemical
# Beta-3 adrenergic receptor (Canis lupus familiaris, UniProt O02662), sequence (O02662 whole entry): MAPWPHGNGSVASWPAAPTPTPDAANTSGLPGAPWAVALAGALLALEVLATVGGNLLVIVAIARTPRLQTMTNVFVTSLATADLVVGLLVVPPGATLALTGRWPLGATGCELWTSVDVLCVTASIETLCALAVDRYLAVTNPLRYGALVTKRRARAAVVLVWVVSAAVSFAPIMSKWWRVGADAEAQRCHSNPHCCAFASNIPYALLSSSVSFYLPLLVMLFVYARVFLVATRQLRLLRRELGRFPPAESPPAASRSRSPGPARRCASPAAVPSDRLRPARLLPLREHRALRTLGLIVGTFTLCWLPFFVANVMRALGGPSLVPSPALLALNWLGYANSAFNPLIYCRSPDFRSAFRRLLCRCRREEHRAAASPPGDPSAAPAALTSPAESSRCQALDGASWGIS
smiles,measurement,setting,value
O=S(=O)(Nc1ccc(CCNC[C@H](O)c2cccnc2)cc1)c1ccc(-c2nc(-c3ccc(C(F)(F)F)cc3)cs2)cc1,bioavailability,[1],4%
same,EC50,[2],25 nM
same,IC50,[3],5000 nM
same,CL free,Rattus norvegicus [4],> 3100 mL/min/kg
same,max activation,[5],106%
same,max activation,[6],17%
same,CL free,Canis familiaris [7],> 1000 mL/min/kg
same,IC50,Cytochrome P450 2C9,24000 nM
same,AC50,[8],560 nM
same,fraction unbound,[9],≤ 0.02
same,AUC/dose,Rattus norvegicus [10],70 nM·h/mg/kg
same,EC50,[11],3400 nM
same,AUC/dose,Rhesus monkey [12],50 nM·h/mg/kg
same,fraction unbound,[13],≤ 0.02
same,IC50,Cytochrome P450 2D6,11000 nM
same,CL free,Rhesus monkey [14],> 950 mL/min/kg
same,EC50,[15],0.43 nM
same,AUC/dose,Canis familiaris [16],290 nM·h/mg/kg
same,max activation,[17],81%
same,EC50,[18],17 nM
same,IC50,[19],220 nM
same,bioavailability,[20],27%
same,IC50,Cytochrome P450 3A4,9300 nM
same,logD,[21],4.7
same,bioavailability,[22],17%
same,max activation,[23],93%
same,IC50,[24],1700 nM
same,fraction unbound,[25],≤ 0.02
same,max activation,[26],17%
same,solubility,[27],< 100 µg/mL
